Earlier results, collected in patent US7193081B2, “Process for preparation of cyclic prodrugs of PMEA and PMPA” (Metabasis Therapeutics, Inc., priority 2002, dated 2007).

What was measured:
HIV = settings: against HIV
hepatitis B = settings: against hepatitis B

Structure (SMILES)	antiviral activity (HIV)	antiviral activity (hepatitis B)
C[C@H](Cn1cnc2c(N)ncnc21)OCP(=O)(O)O [PMPA, (R)-9-(2-phosphonyl-methoxypropyl)adenine]	exhibit antiviral activity	exhibit antiviral activity
Nc1ncnc2c1ncn2CCOCP(=O)(O)O [PMEA, 9-(2-phosphonylmethoxyethyl)adenine]	exhibit antiviral activity	exhibit antiviral activity
